ChEMBL document CHEMBL1201862, “PubChem BioAssay data set” (2004)
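Results reflect a 48-hour exposure of cells in 96-well plates to compound at five concentrations. GI50 marks 50% less growth.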 The source made the active and inactive calls. Rule as the data show it: active = GI50 up to about 1.1 µM and inactive = higher.

Key:
Experiment in all cases: NCI anticancer screen, dose series, 48 h
LOX IMVI = system: LOX IMVI
Malme-3M = system: Malme-3M
SF-295 = system: SF-295
SNB-75 = system: SNB-75
SW-620 = system: SW-620
MOLT-4 = system: MOLT-4
HCT-116 = system: HCT-116
U-251 = system: U-251
HCT-15 = system: HCT-15
NCI-H522 = system: NCI-H522
NCI-H23 = system: NCI-H23
HOP-92 = system: HOP-92
RXF 393 = system: RXF 393
HT-29 = system: HT-29
SF-539 = system: SF-539
HOP-62 = system: HOP-62
EKVX = system: EKVX
TK-10 = system: TK-10
SN12C = system: SN12C
SF-268 = system: SF-268

SMILES	GI50 (LOX IMVI)	GI50 (Malme-3M)	GI50 (SF-295)	GI50 (SNB-75)	GI50 (SW-620)	GI50 (MOLT-4)	GI50 (HCT-116)	GI50 (U-251)	GI50 (HCT-15) [µM]	GI50 (NCI-H522)	GI50 (NCI-H23)	GI50 (HOP-92)	GI50 (RXF 393)	GI50 (HT-29)	GI50 (SF-539)	GI50 (HOP-62)	GI50 (EKVX)	GI50 (TK-10)	GI50 (SN12C)	GI50 (SF-268)
COc1ccc2cc(C(=O)CCC(=O)O)ccc2c1	> 100 µM (inactive)	> 100 µM (inactive)	> 100 µM (inactive)	50.1 µM (inactive)	> 100 µM (inactive)	> 100 µM (inactive)	> 100 µM (inactive)	> 100 µM (inactive)	> 100	> 100 µM (inactive)	> 100 µM (inactive)	> 100 µM (inactive)	> 100 µM (inactive)	> 100 µM (inactive)	> 100 µM (inactive)	> 100 µM (inactive)	> 100 µM (inactive)	> 100 µM (inactive)	> 100 µM (inactive)	> 100 µM (inactive)
CCCCCN(CCCCC)C(=O)[C@@H](CCC(=O)OCc1ccccc1)NC(=O)c1cc2ccccc2[nH]1	> 100 µM (inactive)	> 100 µM (inactive)	> 100 µM (inactive)	> 100 µM (inactive)	> 100 µM (inactive)		> 100 µM (inactive)	6.22 µM (inactive)	> 100	> 100 µM (inactive)	> 100 µM (inactive)	> 100 µM (inactive)	> 100 µM (inactive)	> 100 µM (inactive)	> 100 µM (inactive)	> 100 µM (inactive)	> 100 µM (inactive)		> 100 µM (inactive)	> 100 µM (inactive)
CCOC(=O)CC1=N/C(=N/C(=N)N[N+](=O)[O-])SC1	> 100 µM (inactive)	> 100 µM (inactive)	> 100 µM (inactive)	> 100 µM (inactive)	> 100 µM (inactive)		> 100 µM (inactive)	> 100 µM (inactive)	> 100	> 100 µM (inactive)	> 100 µM (inactive)	> 100 µM (inactive)	> 100 µM (inactive)	> 100 µM (inactive)	> 100 µM (inactive)	> 100 µM (inactive)	> 100 µM (inactive)	> 100 µM (inactive)	> 100 µM (inactive)	> 100 µM (inactive)
Fc1ccc2nc3n(c2c1)C(c1c(Cl)cccc1Cl)SC3 (stereo not drawn)	> 100 µM (inactive)	> 100 µM (inactive)	> 100 µM (inactive)	63.4 µM (inactive)	> 100 µM (inactive)	6.71 µM (inactive)	> 100 µM (inactive)	> 100 µM (inactive)	> 100	29.4 µM (inactive)	> 100 µM (inactive)	50.4 µM (inactive)	> 100 µM (inactive)	> 100 µM (inactive)	> 100 µM (inactive)	> 100 µM (inactive)		> 100 µM (inactive)	> 100 µM (inactive)	> 100 µM (inactive)
Cc1nc2ccccc2c(=O)n1/N=C(\N=N\c1cc(Cl)ccc1Cl)c1ccccc1	40.6 µM (inactive)	41 µM (inactive)	44.9 µM (inactive)	16.1 µM (inactive)	32.1 µM (inactive)	35 µM (inactive)	17.4 µM (inactive)	27.1 µM (inactive)	31.2	29.9 µM (inactive)	50.7 µM (inactive)	30.4 µM (inactive)	63.5 µM (inactive)	36.7 µM (inactive)	46.5 µM (inactive)	12.4 µM (inactive)	20.7 µM (inactive)	> 93.5 µM (inactive)	> 54.2 µM (inactive)	58.6 µM (inactive)
O=C1O[C@@H](c2ccccc2)C[C@H]1CN1CCOCC1	> 100 µM (inactive)	> 100 µM (inactive)	> 100 µM (inactive)	51.9 µM (inactive)	> 100 µM (inactive)	33 µM (inactive)		> 100 µM (inactive)	> 100	> 100 µM (inactive)	17 µM (inactive)	> 100 µM (inactive)	> 100 µM (inactive)	> 100 µM (inactive)	> 100 µM (inactive)	> 100 µM (inactive)	> 100 µM (inactive)	84.9 µM (inactive)	> 100 µM (inactive)	> 100 µM (inactive)
CCN(CC)CCCNc1nc(=O)[nH]c(C)c1C(=O)Nc1c2ccccc2nc2ccccc12	8.43 µM (inactive)	7.87 µM (inactive)	5.97 µM (inactive)	10.1 µM (inactive)	21.4 µM (inactive)	4.28 µM (inactive)	5.41 µM (inactive)	12.6 µM (inactive)	4.8	3.63 µM (inactive)	7.53 µM (inactive)	2.63 µM (inactive)	27 µM (inactive)	7.41 µM (inactive)	11.9 µM (inactive)	24.8 µM (inactive)	12.2 µM (inactive)	17.1 µM (inactive)	15.4 µM (inactive)	
C/C(CC(=O)Nc1cccc(Cl)c1C)=N\NC(=O)c1ccncc1	> 100 µM (inactive)	> 100 µM (inactive)	> 100 µM (inactive)	> 100 µM (inactive)	> 100 µM (inactive)	> 100 µM (inactive)	> 100 µM (inactive)	> 100 µM (inactive)		21.4 µM (inactive)	58.9 µM (inactive)	> 100 µM (inactive)	29.1 µM (inactive)	> 100 µM (inactive)	> 100 µM (inactive)	> 100 µM (inactive)	> 100 µM (inactive)	> 100 µM (inactive)		> 100 µM (inactive)
OC1/C(=C/c2ccccc2)CNC/C1=C\c1ccccc1 (stereo not drawn)	> 100 µM (inactive)	> 100 µM (inactive)	> 100 µM (inactive)	75.7 µM (inactive)	> 100 µM (inactive)	> 100 µM (inactive)	> 100 µM (inactive)	> 100 µM (inactive)	> 100	> 100 µM (inactive)		96.8 µM (inactive)	> 100 µM (inactive)	89.7 µM (inactive)	> 100 µM (inactive)	> 100 µM (inactive)	> 100 µM (inactive)	> 100 µM (inactive)	> 100 µM (inactive)	> 100 µM (inactive)
O=C(Nc1cnc(O)nc1O)C(Cl)Cl	> 100 µM (inactive)	> 100 µM (inactive)	> 100 µM (inactive)	> 100 µM (inactive)	> 100 µM (inactive)	> 100 µM (inactive)	> 100 µM (inactive)	> 100 µM (inactive)	> 100	> 100 µM (inactive)	> 100 µM (inactive)	> 100 µM (inactive)	> 100 µM (inactive)	> 100 µM (inactive)	> 100 µM (inactive)	> 100 µM (inactive)	> 100 µM (inactive)	> 100 µM (inactive)	> 100 µM (inactive)	
Cc1ccc(S(=O)(=O)NC(=O)NCC(N)=O)cc1	> 100 µM (inactive)	> 100 µM (inactive)	> 100 µM (inactive)	> 100 µM (inactive)	> 100 µM (inactive)	> 100 µM (inactive)	> 100 µM (inactive)	> 100 µM (inactive)	> 100	> 100 µM (inactive)	> 100 µM (inactive)	> 100 µM (inactive)	> 100 µM (inactive)	> 100 µM (inactive)	> 100 µM (inactive)	> 100 µM (inactive)		> 100 µM (inactive)	> 100 µM (inactive)	> 100 µM (inactive)
CCOC(=O)C1(C(N)=O)C(=O)c2ccncc2C1=O (stereo not drawn)	> 100 µM (inactive)	> 100 µM (inactive)	> 100 µM (inactive)	> 100 µM (inactive)	> 100 µM (inactive)		> 100 µM (inactive)	> 100 µM (inactive)	> 100	> 100 µM (inactive)	> 100 µM (inactive)	> 100 µM (inactive)	> 100 µM (inactive)	> 100 µM (inactive)	> 100 µM (inactive)		> 100 µM (inactive)		> 100 µM (inactive)	> 100 µM (inactive)
O=[N+]([O-])c1nccn1CC(O)c1ccc(F)cc1 (stereo not drawn)	> 100 µM (inactive)	> 100 µM (inactive)	> 100 µM (inactive)	> 100 µM (inactive)	> 100 µM (inactive)	> 100 µM (inactive)		> 100 µM (inactive)	> 100	> 100 µM (inactive)	> 100 µM (inactive)	> 100 µM (inactive)	> 100 µM (inactive)	> 100 µM (inactive)	> 100 µM (inactive)	> 100 µM (inactive)	> 100 µM (inactive)	> 100 µM (inactive)	> 100 µM (inactive)	> 100 µM (inactive)
CC(C)(O)[C@@H]1CCC(C)([C@H]2[C@@H](O)CC3(C)C4CC(OC5OC(CO)C(O)C(O)C5O)C5C(C)(C)[C@@H](OC6OCC(O)C(O)C6O)CC[C@@]56C[C@@]46CC[C@]23C)O1 (stereo partly drawn)	> 100 µM (inactive)	> 100 µM (inactive)	> 100 µM (inactive)	> 100 µM (inactive)	> 100 µM (inactive)	> 100 µM (inactive)	> 100 µM (inactive)	> 100 µM (inactive)	> 100	> 100 µM (inactive)	> 100 µM (inactive)	> 100 µM (inactive)	> 100 µM (inactive)	> 100 µM (inactive)	> 100 µM (inactive)		> 100 µM (inactive)	> 100 µM (inactive)	> 100 µM (inactive)	> 100 µM (inactive)
O=C(Oc1cccc(Cl)c1)c1cc2cc(CCl)ccc2oc1=O	40.6 µM (inactive)	14 µM (inactive)	71.1 µM (inactive)	31.4 µM (inactive)	> 100 µM (inactive)	34.9 µM (inactive)	61.5 µM (inactive)		88.3	15.3 µM (inactive)	59 µM (inactive)	19.8 µM (inactive)	20.7 µM (inactive)	30.5 µM (inactive)	49.1 µM (inactive)	42.9 µM (inactive)	44.4 µM (inactive)	32.1 µM (inactive)	48.9 µM (inactive)	80 µM (inactive)
